# Assay results from article PMC3810934 (Emerging Infectious Diseases, 2013).
# Like-named read-outs stand apart in the source and are kept apart here.
# Key:
# [1] = molecular target: T1, Oseltamivir-resistant A/Texas/23/2012 neuraminidase (H275Y) (Influenza A virus (H1N1pdm09), UniProt R4SI91, H275Y); format: biochemical, Pandemic influenza A(H1N1) 2009 virus; settings: pH 6.5
# [2] = molecular target: T2, Oseltamivir-resistant A/Bethesda/956/2006 neuraminidase (K at 292) (Influenza A virus (H3N2), UniProt F1KL32, R292K); format: biochemical; settings: pH 5.1
# [3] = molecular target: T2, Oseltamivir-resistant A/Bethesda/956/2006 neuraminidase (K at 292); format: biochemical; settings: pH 6.5
# [4] = molecular target: T1, Oseltamivir-resistant A/Texas/23/2012 neuraminidase (H275Y); format: biochemical, Pandemic influenza A(H1N1) 2009 virus; settings: pH 5.1
smiles,measurement,setting,value
"CCC(CC)[C@H](NC(C)=O)[C@@H]1[C@H](O)[C@@H](C(=O)O)C[C@H]1N=C(N)N [Peramivir, peramivir]",Fold change in IC50 compared with drug-sensitive subtype-specific control,[1],15.81 (264) -fold
same,IC50,[1],15.8 nM
same,Fold change in IC50 compared with drug-sensitive subtype-specific control,[2],8.58 (86) fold
same,IC50,[2],8.58 nM
same,Fold change in IC50 compared with drug-sensitive subtype-specific control,[3],16.27 (203) -fold
same,IC50,[3],16.3 nM
same,Fold change in IC50 compared with drug-sensitive subtype-specific control,[4],30.17 (431) fold
same,IC50,[4],30.2 nM
